Test results published in US8895613B2 (priority 2013, dated 2014).

Biological target: neuraminidase of Oseltamivir resistant virus of A/Vladivostok/16/09 (H1N1) influenza (Influenza A virus, UniProt C3W5S3)

| SMILES | more active than A2 by factor | more active than A4 by factor |
| --- | --- | --- |
| CCC(CC)O[C@@H]1C=C(C(=O)O)C[C@H](NC(=N)N)[C@H]1NC(=O)C(F)F [1.4, (3R,4R,5S)-5-guanidino-4-difluoroacetamido-3-(pentan-3-yloxy)cyclohex-1-enecarboxylic acid] | 118 | 140 |
| CCC(CC)O[C@@H]1C=C(C(=O)O)C[C@H](NC(=N)N)[C@H]1NC(=O)CF [1.1, (3R,4R,5S)-5-guanidino-4-fluoroacetamido-3-(pentan-3-yloxy)cyclohex-1-enecarboxylic acid] | 207 | 250 |
